Reference: patent EP4122467A1, “THX-B FOR TREATING AND PREVENTING CANCER AND METASTASIS” (Fundación del Sector Público Estatal Centro Nacional de …, priority 2021, dated 2023)
Entries after “also recorded” stand apart in the source; their conditions may differ.

What was measured:
[1] = Drug levels and tissue distribution after intraperitoneal and oral administration; type: in vivo, mice
Protocol: In lymph nodes compound was detected at 8 hours with a concentration of 9 ng/ml.

mouse melanoma cells = test: Spontaneous metastasis model, mouse melanoma cells injected subcutaneously (Figure 1); type: in vivo, c57/BL6 mice
Protocol: • Figure 1. NGFR inhibition by THX-B reduces melanoma spontaneous metastasis. A-B) 200.000 lymph node metastatic mouse melanoma cells were subcutaneously in c57/BL6 mice. Animals were treated intra-peritoneally with THX-B (4 mg/Kg twice a week), starting on day 7 post-injection of tumor cells. Tumor volume (A) was measured twice a week using a caliper. LN and lung metastatic burden (B) were measured using the IVIS image system and represented as fold over vehicle treated mice. Error bars represent s.e.m. of 2 experiments (n = 8 mice, vehicle group and n = 10, THX-B group). C-D) Similarly, tumor growth (C) was measured in mice subcutaneously injected with lung metastatic mouse melanoma cells (200.000) and treated with vehicle or THX-B in the same conditions as A) (n=4-5mice per condition). D) Percentage of lung lobules with melanoma metastasis in animals with flank tumors originated by injecting B16F10 cells. p values were calculated by two-tailed Student's t test. • Figure 2. NGFR inhibition by THX-B reduces melanoma spontaneous metastasis in immunodeficient models. Lung metastatic human melanoma cells (500.000) were injected subcutaneously into the flank of nude mice. […] A) Tumor growth was measured with a caliper twice a week. B) Quantification of the percentage of lung lobules with melanoma metastasis was analyzed measuring Luc expression of tumor loci with the IVIS system. p values were calculated by two-tailed Student's t test. • Figure 3. […] A) Tumor volume was measured using a caliper. […] Distal metastases were analyzed measuring luciferase expression in the lungs using IVIS system. Error bars represent s.e.m of 3 experiment (n = 12 mice, vehicle group, n = 12, antiPD-L1 group; n=8 antiPDL1 and THX-B group). p values were calculated by two-tailed Student's t test. • Figure 4. […] Quantification of LYVE+ area was performed with ImageJ software and was normalized to total LN area in each section. Error bars represent s.e.m of 1 experiment (n = 6 LNs, 3 whole sections analyzed per nodule). p values were calculated by two-tailed Student's t test. • Figure 6. […]

[2] = tested on: Lung metastatic human melanoma cells; test: Spontaneous metastasis model in immunodeficient mice, human melanoma cells injected subcutaneously (Figure 2); type: in vivo, nude mice; conditions: immunodeficient models; THX-B 4 mg/Kg intraperitoneal twice a week from day 7; vs vehicle
Protocol: (§1) • Figure 1. NGFR inhibition by THX-B reduces melanoma spontaneous metastasis. A-B) 200.000 lymph node metastatic mouse melanoma cells were subcutaneously in c57/BL6 mice. Animals were treated intra-peritoneally with THX-B (4 mg/Kg twice a week), starting on day 7 post-injection of tumor cells. Tumor volume (A) was measured twice a week using a caliper. LN and lung metastatic burden (B) were measured using the IVIS image system and represented as fold over vehicle treated mice. Error bars represent s.e.m. of 2 experiments (n = 8 mice, vehicle group and n = 10, THX-B group). C-D) Similarly, tumor growth (C) was measured in mice subcutaneously injected with lung metastatic mouse melanoma cells (200.000) and treated with vehicle or THX-B in the same conditions as A) (n=4-5mice per condition). D) Percentage of lung lobules with melanoma metastasis in animals with flank tumors originated by injecting B16F10 cells. p values were calculated by two-tailed Student's t test. • Figure 2. […] A) Tumor growth was measured with a caliper twice a week. B) Quantification of the percentage of lung lobules with melanoma metastasis was analyzed measuring Luc expression of tumor loci with the IVIS system. p values were calculated by two-tailed Student's t test. • Figure 3. […] A) Tumor volume was measured using a caliper. […] Distal metastases were analyzed measuring luciferase expression in the lungs using IVIS system. […]

proNGF/p75^NTR axis [3] = test: Fasting serum glucose and bladder weight/morphology after drug washout (Figure 7); type: in vivo, C57BL/6 female mice; conditions: after the 3 week washout period; compared with Dm
Protocol: as §1

B16F1-R2 cells = test: Lymph node lymphangiogenesis, LYVE-1 staining of inguinal LNs of animals with flank tumors (Figure 5); type: in vivo; conditions: 2.5 mg/Kg THX-B intra-peritoneally twice a week from day 7; sacrificed at 21 days
Protocol: as §1

proNGF/p75^NTR axis [4] = test: Bladder weight and morphology in diabetic voiding dysfunction model; type: in vivo, C57BL/6 female mice
Protocol: (§2) Animal housing and treatments All experiments received the ethical approval from the Lady Davis Institute Ethics Board (No. 7859), Montreal, Canada. Housing and handling conformed with the Canadian Council for Animal Care (CCAC). One hundred and forty four 9-week-old C57BL/6 female mice were kept on a 12 h light/dark cycle with free access to food (standard Purina chow, Teklad Global, Wl, USA) and water. Diabetes was induced by i.p. injection of streptozotocin (60 mg/kg in citrate buffer, 10 mmol/l, pH 4.5 on 5 consecutive days) after 4-5 h fasting. Fasting serum glucose (FSG) was checked after 5-7 days using a glucometer (Contour next EZ, Bayer, ON, Canada) from the tail. FSG above 14 mmol/l was considered diabetic. Mice were divided into four groups without pre-considering their weight changes or glucose levels (for diabetic groups): control (42 mice); untreated diabetic (hereafter referred to as Dm; 42 mice); anti-proNGF mAb-treated diabetic mice (30 mice); and small molecule p75^NTR antagonist (THX-B)-treated diabetic mice (30 mice). […] This inhibitor antagonises ligand-dependent p75^NTR functions and, different from other anti-NGF mAbs, it is free of the off-target side effects resulting from inhibiting TrkA. We have observed that the molecule is detectable in systemic circulation for 2 weeks. The THX-B small molecule ((1,3-diisopropyl-1-[2-(1,3-dimethyl-2,6-dioxo-1,2,3,6-tetrahydro-purin-7-yl)-acetyl]-urea); molecular mass […]) is a synthetic chemical with an estimated systemic circulation half-life in vivo of 6-8 h.
(§3) Without blinding, i.p. injections of the drug molecules or the vehicle (PBS) were given weekly for four weeks, starting after 2 weeks of diabetes confirmation. A single starting proNGF mAb i.p. injection of 100 µg/mouse in 150 µl PBS was followed by 60 µg/mouse in 100µl PBS for the following three injections. THX-B was injected i.p. at a weekly dose of 50 µg/mouse in 125 µl PBS. Experimental time points (to carry out cystometry, contractility, protein extraction and histology) were baseline (two weeks after diabetes diagnosis included control and Dm groups only), week 2 after treatment (following 2 injection cycles) and week 4 after treatment (following 4 injection cycles). Body weight was measured weekly and FSG fortnightly for all groups. Six mice from each group were kept for another 2 weeks after the end of the study duration to observe the washout/prolonged effect of the molecules.

proNGF/NGF = test: Molecular changes in diabetic voiding dysfunction model: proNGF/NGF; type: in vivo, C57BL/6 female mice; conditions: compared with Dm
Protocol: (§4) Animal housing and treatments All experiments received the ethical approval from the Lady Davis Institute Ethics Board (No. 7859), Montreal, Canada. Housing and handling conformed with the Canadian Council for Animal Care (CCAC). One hundred and forty four 9-week-old C57BL/6 female mice were kept on a 12 h light/dark cycle with free access to food (standard Purina chow, Teklad Global, Wl, USA) and water. Diabetes was induced by i.p. injection of streptozotocin (60 mg/kg in citrate buffer, 10 mmol/l, pH 4.5 on 5 consecutive days) after 4-5 h fasting. Fasting serum glucose (FSG) was checked after 5-7 days using a glucometer (Contour next EZ, Bayer, ON, Canada) from the tail. FSG above 14 mmol/l was considered diabetic. Mice were divided into four groups without pre-considering their weight changes or glucose levels (for diabetic groups): control (42 mice); untreated diabetic (hereafter referred to as Dm; 42 mice); anti-proNGF mAb-treated diabetic mice (30 mice); and small molecule p75^NTR antagonist (THX-B)-treated diabetic mice (30 mice). […]
(§5) Without blinding, i.p. injections of the drug molecules or the vehicle (PBS) were given weekly for four weeks, starting after 2 weeks of diabetes confirmation. […] Body weight was measured weekly and FSG fortnightly for all groups. […]

proNGF/p75^NTR axis [5] = test: Voiding spot assay (VSA) in diabetic mice; type: in vivo, C57BL/6 female mice
Protocol: Voiding spot assay: For the voiding spot assay (VSA), mice were placed individually with access to food without water for 2 h. The cage was fitted with a chromatography paper, grade 3 mm CHR (Whatman, GE Healthcare, UK) covered by a fine metallic mesh (2-3 mm pore size). The urine spot pattern was assessed by imaging the chromatography paper with ultraviolet light using SynGene Bioimaging system (USA) connected to GeneSnap software (Version 7.02, USA) and analysed by ImageJ software (Version: 2.0.0-rc-66/1.52n, NIH, USA) using a calibration curve and Void Whizzard free software plugin for FIJI (distribution of ImageJ, Version: 2.0.0-rc-66/1.52n, NIH, USA). Mice were acquainted to the procedure once to get accustomed, then the experiment was done once to obtain the voiding data.
as §2, §3

TNF-a = test: Molecular changes in diabetic voiding dysfunction model: TNF-a; type: in vivo, C57BL/6 female mice; conditions: compared with Dm
Protocol: as §4, §5

[6] = Persistence in systemic circulation in vivo; conditions: read-out: estimated systemic circulation half-life in vivo
Text: In both the proNGF mAb and the THX-B treatments, the prolonged anatomical physiological effects on the bladder are likely to be due to a prolonged therapeutic effect rather than to the drugs remaining in circulation at therapeutic levels after a 3 week period, given that we have observed that anti-proNGF mAb is detectable in systemic circulation only for 2 weeks in previous studies.
as §4, with “diabetic.” for “diabetic. Mice were divided into four groups without pre-considering their weight changes or glucose levels (for diabetic groups): control (42 mice); untreated diabetic (hereafter referred to as Dm; 42 mice); anti-proNGF mAb-treated diabetic mice (30 mice); and small molecule p75^NTR antagonist (THX-B)-treated diabetic mice (30 mice).”

proNGF/p75^NTR axis [7] = test: Cystometry in diabetic voiding dysfunction model; type: in vivo, C57BL/6 female mice; conditions: compared with Dm
Protocol: as §2, §3

proNGF/p75^NTR axis [8] = test: Bladder contractility in diabetic voiding dysfunction model; type: in vivo, C57BL/6 female mice; conditions: compared with Dm, week as printed in the cell
Protocol: as §2
Without blinding, i.p. injections of the drug molecules or the vehicle (PBS) were given weekly for four weeks, starting after 2 weeks of diabetes confirmation. A single starting proNGF mAb i.p. injection of 100 µg/mouse in 150 µl PBS was followed by 60 µg/mouse in 100µl PBS for the following three injections. THX-B was injected i.p. at a weekly dose of 50 µg/mouse in 125 µl PBS. […] Body weight was measured weekly and FSG fortnightly for all groups. […]

[9] = THX-B 4 mg/Kg intra-peritoneally twice a week from day 7, vs vehicle
[10] = compared with Dm, week as printed in the cell

## CC(C)NC(=O)N(C(=O)Cn1cnc2c1c(=O)n(C)c(=O)n2C)C(C)C [THX-B, 1,3-diisopropyl-1-[2-(1,3-dimethyl-2,6-dioxo-1,2,3,6-tetrahydro-purin-7-yl)-acetyl]-urea]
[1]; females, 20 hours after injection 4mg/Kg
  organ distribution: lymph nodes: can be detected
[1]; intraperitoneal injection 4mg/Kg, males and female mice, said to suggest a short half-life
  detection levels: dropped 1 hour after injection
[1]; mouse, lymph nodes, oral dose 50mg/Kg, 8 hours
  concentration at 8 h: 9 ng/mL
[1]; mouse, tissues except lymph nodes, oral dose 50mg/Kg, 24h, read-out: tissue distribution: concentration in all the tissues except the lymph nodes
  concentration at 24 h: 12 to 20 ng/mL
[1]; oral gavage 10mg/Kg, compared with intraperitoneal injection
  half-life: similar
[1]; oral gavage 50mg/Kg
  half-life: sustained over time
Mouse melanoma cells; Figure 1 title, THX-B 4 mg/Kg intra-peritoneally twice a week
  melanoma spontaneous metastasis: reduces
Mouse melanoma cells; [9]
  distal (lung) spontaneous metastasis: impaired
  local (lymph node) spontaneous metastasis: impaired
[2]
  lung spontaneous metastasis: reduce
proNGF/p75^NTR axis [3]
  Bladder weight: persistent absence of bladder hypertrophy; also recorded: maintained a significant difference
B16F1-R2 cells
  lymph node lymphangiogenesis (Lyve-1+ staining in inguinal lymph nodes): reduces; also recorded: decreased
proNGF/p75^NTR axis [4]; compared with Dm
  Morphology: Collagen content: ↓
  Morphology: Detrusor: ↓
  Morphology: Mucosa: ↓
  Morphology: Overall thickness: ↓
proNGF/p75^NTR axis [4]; compared with Dm, week of treatment as printed in the cell
  Bladder weight: ↓ (week 2,4)
proNGF/p75^NTR axis [4]; following THX-B treatment, in spite of continuous hyperglycemia
  morphology of the bladder: improved
proNGF/NGF
  Molecular changes: proNGF/NGF: ↓
proNGF/p75^NTR axis [5]; after 2 weeks of treatment
  lower total voided volume compared with Dm: 50%
proNGF/p75^NTR axis [5]; after 2 weeks of treatment, 2 h VSA, Dm 802.5±123µl
  total voided volume: 372 ± 73 µL
proNGF/p75^NTR axis [5]; compared with Dm
  VSA: Volume per spot: ⇔
proNGF/p75^NTR axis [5]; compared with Dm, except total voided volume for THX-B at 2 weeks
  effects on voiding frequency, total voided volume and mean volume per micturition: minimal effects
proNGF/p75^NTR axis [5]; [10]
  VSA: Number of spots: ↓ (week 2)
  VSA: Total volume: ↓ (week 2)
TNF-a
  Molecular changes: TNF-a: ↓↓
[6]
  half-life: 6 to 8 h
proNGF/p75^NTR axis [7]
  Cystometry: Spontaneous activity: ⇔
proNGF/p75^NTR axis [7]; week as printed in the cell
  Cystometry: Bladder capacity: ↓ (week 4)
  Cystometry: Bladder compliance: ⇔
proNGF/p75^NTR axis [7]; inter-contraction interval, week as printed in the cell
  Cystometry: ICI: ↓ (week 4)
proNGF/p75^NTR axis [8]; Electric field stimulation
  Contractility: EFS: ↑ (week 2,4)
proNGF/p75^NTR axis [8]
  Contractility: Carbachol: ↑ (week 2,4)
  Contractility: KCI: ↑ (week 2,4)
